In a compilation of properties of binary mixtures (doi:10.1007/s10953-022-01154-2):

Test: xn = mol fraction of the nth substance listed
Conditions: 101.3 kPa

CC1COC(=O)O1 (stereo not given) + CC[n+]1ccn(C)c1.N#C[S-]
x2 = 0
Conditions	viscosity [mPa·s]
298.15 K	2.496
303.15 K	2.164
313.15 K	1.731
318.15 K	1.586
323.15 K	1.466
328.15 K	1.373
338.18 K	1.223
343.15 K	1.173

CC[n+]1ccn(C)c1.N#C[S-] + CC1COC(=O)O1
Conditions	electrical conductivity [S/m]	viscosity [mPa·s]
293.15 K, x1 = 0.0989	1.49	4.213
293.15 K, x1 = 0.4	2.17	9.86
293.15 K, x1 = 0.499	2.06	12.27
293.15 K, x1 = 0.599	1.96	15.04
293.15 K, x1 = 0.7045	1.89	18.06
293.15 K, x1 = 0.796	1.77	20.66
293.15 K, x1 = 0.8942	1.66	23.53
293.15 K, x1 = 1	1.58	26.76
298.15 K, x1 = 0.2045	2.28	5.073
298.15 K, x1 = 0.2984	2.45	6.601
298.15 K, x1 = 0.499	2.25	10.59
298.15 K, x1 = 0.796	1.97	17.73
298.15 K, x1 = 0.8942	1.86	20.22
298.15 K, x1 = 1	1.75	23.11
303.15 K, x1 = 0.0989	1.86	3.259
303.15 K, x1 = 0.2045	2.48	4.415
303.15 K, x1 = 0.2984	2.67	5.742
303.15 K, x1 = 0.4	2.58	7.328
303.15 K, x1 = 0.499	2.47	9.17
303.15 K, x1 = 0.599	2.38	11.19
303.15 K, x1 = 0.7045	2.28	13.39
303.15 K, x1 = 0.796	2.19	15.34
303.15 K, x1 = 0.8942	2.06	17.54
303.15 K, x1 = 1	1.95	20.12
308.15 K, x1 = 0.0989	2.09	2.877
308.15 K, x1 = 0.2045	2.7	3.859
308.15 K, x1 = 0.2984	2.92	4.972
308.15 K, x1 = 0.4	2.82	6.341
308.15 K, x1 = 0.499	2.71	7.916
308.15 K, x1 = 0.599	2.62	9.67
308.15 K, x1 = 0.7045	2.52	11.57
308.15 K, x1 = 0.796	2.42	13.28
308.15 K, x1 = 0.8942	2.29	15.21
308.15 K, x1 = 1	2.17	17.5
313.15 K, x1 = 0.0989	2.32	2.569
313.15 K, x1 = 0.2045	2.94	3.39
313.15 K, x1 = 0.2984	3.17	4.367
313.15 K, x1 = 0.4	3.07	5.56
313.15 K, x1 = 0.499	2.96	6.909
313.15 K, x1 = 0.599	2.87	8.432
313.15 K, x1 = 0.796	2.67	11.58
313.15 K, x1 = 0.8942	2.52	13.32
313.15 K, x1 = 1	2.39	15.32
318.15 K, x1 = 0.0989	2.55	2.299
318.15 K, x1 = 0.4	3.33	4.83
318.15 K, x1 = 0.499	3.22	5.988
318.15 K, x1 = 0.796	2.92	10.18
318.15 K, x1 = 1	2.64	13.45
323.15 K, x1 = 0.0989	2.8	2.074
323.15 K, x1 = 0.2984	3.72	3.34
323.15 K, x1 = 0.4	3.6	4.247
323.15 K, x1 = 0.7045	3.28	7.629
323.15 K, x1 = 0.796	3.18	8.83
323.15 K, x1 = 0.8942	3.03	10.15
323.15 K, x1 = 1	2.89	11.78
328.15 K, x1 = 0.0989	3.05	1.878
328.15 K, x1 = 0.2045	3.72	2.36
328.15 K, x1 = 0.2984	4	2.943
328.15 K, x1 = 0.4	3.88	3.72
328.15 K, x1 = 0.7045	3.55	6.692
328.15 K, x1 = 1	3.15	10.37
333.15 K, x1 = 0.2045	4.02	2.095
333.15 K, x1 = 0.2984	4.29	2.593
333.15 K, x1 = 0.4	4.18	3.284
333.15 K, x1 = 0.499	4.06	4.06
333.15 K, x1 = 0.599	3.96	4.939
333.15 K, x1 = 0.7045	3.84	5.885
333.15 K, x1 = 0.796	3.74	6.792
333.15 K, x1 = 0.8942	3.6	7.876
333.15 K, x1 = 1	3.43	9.21
338.15 K, x1 = 0.2045	4.34	–
338.15 K, x1 = 0.2984	4.61	–
338.15 K, x1 = 0.4	4.47	–
338.15 K, x1 = 0.499	4.35	–
338.15 K, x1 = 0.599	4.26	–
338.15 K, x1 = 0.7045	4.13	–
338.15 K, x1 = 0.796	4.02	–
338.15 K, x1 = 0.8942	3.89	–
338.15 K, x1 = 1	3.72	–
338.18 K, x1 = 0.0989	–	1.557
338.18 K, x1 = 0.2045	–	1.89
338.18 K, x1 = 0.4	–	2.891
338.18 K, x1 = 0.499	–	3.563
338.18 K, x1 = 0.599	–	4.34
338.18 K, x1 = 0.7045	–	5.225
338.18 K, x1 = 0.796	–	6.089
338.18 K, x1 = 0.8942	–	7.068
338.18 K, x1 = 1	–	8.1
343.15 K, x1 = 0.0989	3.88	1.432
343.15 K, x1 = 0.2045	4.67	1.699
343.15 K, x1 = 0.2984	4.92	2.057
343.15 K, x1 = 0.599	4.57	3.859
343.15 K, x1 = 0.7045	4.44	4.651
343.15 K, x1 = 0.796	4.32	5.421
343.15 K, x1 = 0.8942	4.2	6.296
